Results reported in patent US8927596B2, “Antischistosomal agent” (National University Corporation Okayama University, priority 2008, dated 2015).

Key:
[1] = tested on: schistosomes (Schistosoma mansoni); experiment: Number of schistosomes in vivo (Experimental Example 1); conditions: infected BALB/c mice, oral, administered on Days 14 and 15 after the infection, counted on Week 6 after the infection
Procedure: 100 μl of the antischistosomal agent of the present invention were orally administered to mice (BALB/c mice, 5-week-old) infected with schistosomes (Schistosoma mansoni) in accordance with a drug dosage regimen of FIG. 2. As a control, 100 μl of olive oil was administered. On Week 6 after the infection, the mice were sacrificed with an overdose of anesthetic, and the number of schistosomes recovered was counted under a microscope.

[2] = tested on: schistosomes (Schistosoma mansoni); experiment: Number of schistosomes and number of eggs produced per adult female schistosome (Experimental Example 2); assay type: in vivo; conditions: infected BALB/c mice, oral, measured on Week 9
Procedure: 100 μl of the antischistosomal agent of the present invention were orally administered to mice (BALB/c mice, 5-week-old) infected with schistosomes (Schistosoma mansoni) in accordance with a drug dosage regimen of FIG. 4. As a control, 100 μl of olive oil was administered. On Week 9 after the infection, the mice were sacrificed with an overdose of anesthetic, and the number of schistosomes recovered and the number of eggs produced per adult female schistosome were measured. The number of schistosomes was measured in the same manner as in Experimental Example 1, and the number of eggs produced was also counted under a microscope.

[3] = tested on: schistosomes (Schistosoma mansoni); experiment: Macroscopic findings on liver lesions in schistosome-infected mice (Experimental Example 3); assay type: in vivo; conditions: infected BALB/c mice, viscera observed macroscopically
immature schistosomes = conditions: as reported in the literature (Non Patent Literature 1); cited from earlier work
[4] = administration on each of Weeks 5 to 7 after the infection

| SMILES | number of schistosomes reduced as compared to the olive oil administration group [1] | number of eggs produced reduced ([2]; administration on Week 5 only after the infection) | number of eggs produced per adult female schistosome reduced as compared to the olive oil administration group [2, 4] | number of schistosomes as compared to the olive oil administration group [2, 4] | liver lesions due to eggs of schistosomes (macroscopic) ([3]; administered on Week 5 after the infection) | enlargement of spleen [3] | effect on schistosomes at the immature stage (immature schistosomes) |
| --- | --- | --- | --- | --- | --- | --- | --- |
| C1CCCCCC2(CCCCC1)OOCCCOO2 [antischistosomal agent, 1,2,6,7-tetraoxaspiro[7.11]nonadecane] | 86% | 87% | 98% | not significantly reduced | few liver lesions | inhibited | – |
| O=C(C1CCCCC1)N1CC(=O)N2CCc3ccccc3C2C1 (stereo not shown) [praziquantel] | – | – | – | – | – | – | not effective |
